Consider one molecule from patent US11319307B2, “2,3-dihydrobenzohurans as bromodomain inhibitors” (GLAXOSMITHKLINE INTELLECTUAL PROPERTY (NO.2) LIMITED, priority 2017, dated 2022).

This test deals with BET family (BRD2, BRD3, BRD4 and BRDT) single and double mutant tandem domain proteins. The test is described as follows: Fluorescence Polarisation binding of Reference Compound X to mutant tandem BET proteins. More on the design: species or system Human. The protocol: The competition of the compounds of formula (I) with Reference Compound X for binding to the BET family (BRD2, BRD3, BRD4 and BRDT) was assessed using protein truncates spanning both bromodomain 1 (BD1) and bromodomain 2 (BD2). In order to monitor differential binding to either BD1 or BD2, single residue mutations of key tyrosines to alanine were made in the acetyl lysine binding pockets. To validate this approach, a double residue mutant tandem domain protein was produced for each of the BET family members. Utilising a Fluorescence Polarisation approach, binding affinities for each of the single and double mutants for Reference Compound X were determined. […] The affinities of the single mutated bromdomain tandem proteins for Reference Compound X were equi-potent with the corresponding non-mutated BET protein. […] In the TR-FRET competition assay, Reference Compound X is used at a concentration that is equivalent to the Kd for the non-mutated bromodomain, which ensures that no binding at the mutated bromodomain is detected. […]
(In general: In fluorescence polarisation assays a small probe gives low polarisation when free and higher when bound to something large.)

As for `COc1ccc2c(c1)C(c1ccc(Cl)cc1)=N[C@@H](CC(=O)NCCCCCNC(=O)CCCCCC1(C)/C(=C/C=C/C=C/C3=[N+](CCCCS(=O)(=O)O)c4ccc(S(=O)(=O)O)cc4C3(C)C)N(CCCCS(=O)(=O)[O-])c3ccc(S(=O)(=O)O)cc31)c1nnc(C)n1-2` (some centres unmarked) [Reference Compound X], the “reduction in Kd (affinity for Reference Compound X)” value (double mutant tandem proteins versus non mutated, wild type tandem BET proteins) was > 1000 fold. For the same molecule, the “reduction of the Kd of the interaction between the mutated bromodomain and Reference Compound X” value (single mutations of Tyrosine to Alanine) was > 1000 fold.
